Data as given in publication PMC11467737, “Osteocalcin binds to a GPRC6A Venus fly trap allosteric site to positively modulate GPRC6A signaling” (FASEB BioAdvances, 2024).
Bridge positions count the residues as written; N and C are the ends. Ends that are not written are not given here.

Tested on: wild‐type (Gprc6a +/+) and global knock out (Gprc6a −/−) mice
Assay: Blood glucose after intraperitoneal injection in mice
Assay type: in vivo, mouse
Conditions: 2 nmol/g intraperitoneal, 24 h, n ≥ 5
Procedure: 8‐week‐old wild‐type (Gprc6a ^ +/+ ) and global knock out (Gprc6a ^ −/− ) mice were injected intraperitoneally with Ocn 20–29 (2 nmol/g body weight), or vehicle (saline; 10 μL/g body weight). Serum was collected at 24 h after intraperitoneal injection. Blood glucose levels were measured by using blood glucose strips and the Accu‐Check glucometer as described.[7], [31] A mouse IL‐6 ELISA Kit was purchased from Invitrogen (Waltham, MA, USA). Rat/Mouse FGF‐21ELISA Kit was obtained from Millipore Sigma (Burlington, MA, USA).
The Gprc6a ^ −/− mouse model was created by replacing exon 2 of the GPRC6A gene with the hygromycin resistance gene, as described previously.[32] Mice were maintained and used in accordance with recommendations as described (National Research Council 1985; Guide for the Care and Use of Laboratory Animals Department of Health and Human Services Publication NIH 86–23, Institute on Laboratory Animal Resources, Rockville, MD) and following guidelines established by the University of Tennessee Health Science Center Institutional Animal Care and Use Committee. The animal study protocol was approved by the institutional review boards at University of Tennessee Health Science Center Institutional Animal Care and Use Committee.

“REVCELNPDC (disulfide 4-10 (inferred)) [Ocn 20–29, synthesized human Ocn decapeptide fragment located in the middle of the protein]” was tested. Which Blood glucose response (Gprc6a −/− mice) did it give?
The Blood glucose response was “lost”.

And the “Reduction of blood glucose levels” value (wild-type Gprc6a +/+ mice, 8 weeks old, single injection, vehicle saline had no effect)?
The value was ~ 10%.
